From ChEMBL document CHEMBL1122562, “Synthesis of 3-hydroxy-2- and -4-pyridone nucleosides as potential antitumor agents” (1984)
The source made the active and inactive calls. The calls are words filed in the database; no cut-off is given here.

Columns and labels:
[1] = tested on: P388; assay: Compound was tested in vitro for its inhibitory activity against murine P-388 leukemia; assay type: functional; settings: Mus musculus, read-out: ID50 (the source's name)
[2] = tested on: P388; assay: Compound was tested in vitro for its inhibitory activity against murine P-388 leukemia at doses ranging from 25 to 400 mg/kg qd 1-5; minimally active T/Cvalues of 125 in this tumor system; assay type: functional, organism-based; settings: Mus musculus
[3] = tested on: P388; assay: Compound was tested in vitro for its inhibitory activity against murine P-388 leukemia at doses ranging from 25 to 400 mg/kg qd 1-5 minimally active T/Cvalues of 125 in this tumor system; assay type: functional, organism-based; settings: Mus musculus

| SMILES | IC50 [1] [µM] | ID50 [2] | further results |
| --- | --- | --- | --- |
| O=c1c(O)cccn1[C@@H]1O[C@H](CO)[C@@H](O)[C@H]1O | 450 |  |  |
| Oc1cccnc1O | 300 |  |  |
| Cc1c(O)c(=O)ccn1C1O[C@H](CO)[C@@H](O)[C@H]1O (stereo partly drawn) | 60 |  |  |
| CC(=O)OC[C@H]1O[C@@H](n2cccc(OC(C)=O)c2=O)[C@H](OC(C)=O)[C@@H]1OC(C)=O |  | inactive |  |
| O=c1c(O)cccn1[C@@H]1O[C@H](CO)[C@@H](O)[C@@H]1O |  |  | ID50 [3]: inactive |
| Cc1nccc(O)c1O | 110 |  |  |
| Cc1c(O)c(O)cc[n+]1C1O[C@H](CO)[C@@H](O)[C@@H]1O (stereo partly drawn) |  | inactive |  |
| COc1c(C)n(C2O[C@H](CO)[C@@H](O)[C@H]2O)ccc1=O (stereo partly drawn) |  | inactive |  |
